Laboratory results from the supplement of paper PMC10307832.

Legend:
Assay in all cases: relative viability (nuclei count vs DMSO), 5 days (fraction); higher = more cells survive
[1] = compound: CC1=CC=C(C=C1)C(=O)CN2C3=C(CCCC3)SC2=N [Pifithrin_alpha] + CC(=O)c1c(C)c2cnc(Nc3ccc(N4CCNCC4)cn3)nc2n(C2CCCC2)c1=O [Palbociclib] (partner 0.5 µM)
Method in brief: (§1)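 Lung cancer cell lines in 1536-well plates were dosed by pin tool the day after seeding, either with one drug alone or with a fixed anchor-drug dose plus five library-drug doses (not always all listed) in √10 steps. After 5 days, cells were fixed and their nuclei stained in one step (final 0.05% Triton X-100, 1% formaldehyde, 1 ug/ml Hoechst), then counted on 4× images. Relative viability is the nuclei count in treated wells divided by that in vehicle wells. Values are medians of duplicate plates.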

[2] = compound: Nc1nc(Nc2ccc3c(c2)CC[C@@H](N2CCCC2)CC3)nn1-c1cc2c(nn1)-c1ccccc1CCC2 [Bemcentinib] + C[C@]1(O)C[C@@H](c2nc(-c3ccc4ccc(-c5ccccc5)nc4c3)c3c(N)nccn32)C1 [Linsitinib] (partner 1 µM)
Method in brief: as §1

[3] = compound: Nc1nc(Nc2ccc3c(c2)CC[C@@H](N2CCCC2)CC3)nn1-c1cc2c(nn1)-c1ccccc1CCC2 [Bemcentinib] + CC1(C)CCC(c2ccc(Cl)cc2)=C(CN2CCN(c3ccc(C(=O)NS(=O)(=O)c4ccc(N[C@H](CCN5CCOCC5)CSc5ccccc5)c(S(=O)(=O)C(F)(F)F)c4)cc3)CC2)C1 [Navitoclax] (partner 0.5 µM)
Method in brief: as §1

[4] = compound: CC1=CC=C(C=C1)C(=O)CN2C3=C(CCCC3)SC2=N [Pifithrin_alpha] + CS(=O)(=O)N1CCN(Cc2cc3nc(-c4cccc5[nH]ncc45)nc(N4CCOCC4)c3s2)CC1 [Pictilisib] (partner 1 µM)
Method in brief: as §1

Cell Line | relative viability ([1]; first compound 1 µM) | relative viability ([1]; first compound 3.162 µM) | relative viability ([1]; first compound 10 µM) | relative viability ([1]; first compound 31.62 µM) | relative viability ([1]; first compound 100 µM) | relative viability ([2]; first compound 0.04 µM) | relative viability ([2]; first compound 0.1265 µM) | relative viability ([2]; first compound 0.4 µM) | relative viability ([2]; first compound 1.265 µM) | relative viability ([2]; first compound 4 µM) | relative viability ([3]; first compound 0.04 µM) | relative viability ([3]; first compound 0.1265 µM) | relative viability ([3]; first compound 0.4 µM) | relative viability ([3]; first compound 1.265 µM) | relative viability ([3]; first compound 4 µM) | relative viability ([4]; first compound 1 µM) | relative viability ([4]; first compound 3.162 µM) | relative viability ([4]; first compound 10 µM) | relative viability ([4]; first compound 100 µM) | relative viability ([4]; first compound 31.62 µM)
NCI-H522 | 0.988 | 0.854 | 0.834 | 0.893 | 0.947 | – | – | – | – | – | – | – | – | – | – | – | – | – | – | –
LU99A | 0.39 | 0.445 | 0.387 | – | 0.453 | 0.524 | 0.555 | 0.56 | 0.499 | 0.562 | 0.766 | 0.93 | 0.697 | 0.755 | 0.821 | 0.35 | 0.311 | 0.325 | 0.305 | –
NCI-H1437 | 0.325 | 0.326 | 0.218 | 0.217 | 0.172 | 1.03 | 1.14 | 1.16 | 1.12 | 1.18 | 1.09 | 1.16 | 1.23 | 1.13 | 1.15 | 0.371 | 0.406 | 0.44 | 0.222 | 0.249
NCI-H460 | 0.102 | 0.102 | 0.12 | 0.0866 | 0.0814 | 0.907 | 1.04 | 1.08 | 0.983 | 0.86 | 0.994 | 1.47 | 1.45 | 1.23 | 1.34 | 0.317 | 0.353 | 0.31 | 0.371 | –
NCI-H1395 | – | 0.617 | 0.62 | – | 0.603 | 1.06 | 1.21 | 1.01 | 1.48 | 0.962 | 1.11 | 1.35 | 1.05 | 1.23 | 1.19 | – | 0.553 | 0.562 | 0.484 | 0.465
NCI-H2085 | 0.499 | 0.432 | 0.449 | 0.446 | 0.444 | 0.842 | 0.977 | 0.837 | 0.9 | 0.855 | 1.07 | 1.07 | 1.1 | 1.18 | 1.1 | 0.487 | 0.498 | 0.444 | 0.404 | 0.43
NCI-H1703 | – | – | – | – | – | 0.675 | 0.776 | 0.798 | 0.638 | 0.746 | 1.08 | 1.03 | 1.34 | 1.04 | 0.85 | 0.25 | 0.24 | 0.261 | 0.251 | 0.214
HCC-366 | 0.33 | 0.289 | 0.28 | – | 0.258 | 0.612 | 0.921 | 1.14 | 0.604 | 0.881 | 1.11 | 1.23 | 1.11 | 1.07 | 1.03 | 0.105 | 0.106 | 0.136 | 0.112 | 0.136
NCI-H1648 | 0.221 | 0.313 | 0.305 | 0.337 | 0.296 | – | – | – | – | – | – | – | – | – | – | – | – | – | – | –
ChaGo-K-1 | 0.87 | 0.955 | 0.901 | 0.509 | 0.911 | – | – | – | – | – | 0.872 | 0.933 | 1.02 | 0.862 | 0.624 | 0.431 | 0.653 | 0.631 | 0.559 | 0.473
NCI-H358 | 0.134 | 0.151 | 0.137 | 0.115 | 0.119 | 0.77 | 0.795 | 0.788 | 0.668 | 0.796 | – | – | – | – | – | 0.276 | 0.346 | 0.368 | 0.317 | 0.333
Calu-6 | – | – | – | – | – | 0.946 | 1.05 | 1.04 | 0.983 | 0.944 | 0.856 | 0.856 | 1.01 | 0.871 | 0.973 | 1 | 0.907 | 0.816 | 0.644 | 0.546
EBC-1 | – | – | – | – | – | 0.926 | 0.928 | 0.907 | 1.19 | 1.18 | 0.377 | 0.404 | 0.431 | 0.394 | 0.422 | 0.261 | 0.224 | 0.237 | 0.214 | 0.198
NCI-H1650 | 0.285 | 0.321 | 0.389 | 0.307 | 0.282 | – | – | – | – | – | 1.1 | 1.29 | 0.946 | 1.33 | 1.16 | 0.286 | 0.44 | 0.53 | 0.468 | 0.353
IA-LM | – | – | – | – | – | 0.661 | 0.962 | 0.654 | 0.697 | 0.713 | 0.748 | 0.988 | 0.975 | 0.841 | 0.725 | 0.369 | 0.298 | 0.312 | 0.291 | 0.344
NCI-H2342 | 0.516 | 0.494 | 0.493 | 0.53 | 0.501 | – | – | – | – | – | – | – | – | – | – | – | – | – | – | –
ABC-1 | – | 0.839 | 0.831 | 0.462 | 0.53 | 0.785 | 0.811 | 0.881 | 0.801 | 0.682 | – | – | – | – | – | 0.273 | 0.745 | 0.735 | 0.437 | 0.429
SW 900 | 0.58 | 0.513 | 0.453 | 0.388 | 0.526 | – | – | – | – | – | – | – | – | – | – | – | – | – | – | –
NCI-H661 | 0.397 | 0.4 | 0.36 | 0.386 | 0.334 | 0.587 | 0.53 | 0.609 | 0.656 | 0.548 | – | – | – | – | – | 0.322 | 0.391 | 0.359 | 0.333 | 0.472
NCI-H2170 | 0.369 | 0.396 | 0.35 | 0.312 | 0.452 | – | – | – | – | – | 0.701 | 0.636 | 0.627 | 0.675 | 0.638 | 0.271 | 0.302 | 0.274 | 0.33 | 0.278
LCLC-103H | 0.525 | 0.518 | 0.472 | 0.464 | 0.456 | 1.17 | 1.09 | 1.11 | 1.27 | 1.22 | – | – | – | – | – | 0.53 | 0.531 | 0.566 | 0.567 | 0.551
A549 | – | – | – | – | – | 0.655 | 0.657 | 0.659 | 0.677 | 0.622 | 1.2 | 1.27 | 1.32 | 1.29 | 1.2 | 0.703 | 0.586 | 0.435 | 0.342 | 0.434
